These results are taken from US5482867A, “Spatially-addressable immobilization of anti-ligands on surfaces” (Affymax Technologies N.V., priority 1993, dated 1996).

Series [1] addresses T1, Avidin (Streptomyces avidinii, UniProt P22629). The conditions noted are these: SBS: Avidin; cited from earlier work.
Series [2] is described as follows: Chromatographic (reverse-phase HPLC) evidence for photoremoval of the NVOC group in solution. It counts as physicochemical. The conditions noted are these: 100 mM, two minutes, 1 watt/cm^2, 500 W Hg(Xe) arc lamp, 305 nm long pass filter; NVOC-biotin-ONP in acetonitrile, biotin in water. From the text: The cuvette was irradiated for two minutes at a power of 1 watt/cm^2 with a 500 W Hg(Xe) arc lamp (Oriel #66142) having a 305 nm long pass filter (Oriel #51450). Illuminated and non-illuminated samples were then subjected to reverse-phase HPLC.

Series [3] addresses T2, streptavidin (Streptomyces avidinii, UniProt P22629).
T2 construct: purchased Amersham
Briefly: Scanning fluorescence imaging of Fluorescein-Biotin binding to streptavidin immobilized on a slide. The conditions noted are these: 1 μM Fluorescein-Biotin, 20 minutes. As for the experimental part:
The microscope slide of Example I having NVOC-biotin covalently attached via a caproic-propyl spacer was illuminated and processed as in Example J, except that after preincubation with the PBS/BSA/Tween 20 solution, the surface was treated with 10 μg/ml solution of Streptavidin (in PBS/BSA/Tween 20) for 40 minutes at room temperature, followed by incubation with a 1 μM solution of Fluorescein-Biotin (5-(N-((5-(N-(6-(biotinoyl)amino) hexanoyl)amino)pentyl)thioureidyl)fluorescein, in PBS, pH 7.4) for 20 minutes. The resulting slide was then washed, dried, and examined using a scanning fluorescence microscope as described above.

In series [4] the target is T2, streptavidin. Briefly: Scanning fluorescence imaging of Fluorescein-Streptavidin binding to caged-biotin glass slides after photodeprotection. The conditions noted are these: NPOC, caproic-propyl spacer. As for the experimental part:
Commercially available glass microscope slides were derivatized with N-BOC-aminopropyltriethoxy silane according to literature procedures (for example, see J. Chromatography, 1974, Vol. 97, p. 33). The slides were incubated in a solution of 20% trifluoroacetic acid in methylene chloride for 30 minutes to remove the BOC protecting group. After washing sequentially with methylene chloride, dimethylformamide, and ethanol, the slides were neutralized by immersing in a solution of 10% diisopropylethyl amine in methylene chloride for 30 minutes and further washed with methylene chloride.
N-BOC-6-aminocaproic acid was converted to the BOP-activated ester in preparation for reaction with the derivatized glass slide. […]
[…], as described in the Example I, was mounted on a custom flow cell and illuminated through a 500 μm×500 μm checkerboard-pattern mask (Photo Sciences Inc., Torrance, Calif.) using broad-band UV/blue light. The light source was a 500 W Mercury arc lamp (Oriel Model 87330) equipped with a 350 nm-450 nm dichroic reflector and produced actinic light having an intensity of 12 mW/cm^2 as measured through a 360 nm bandpass filter. […]

Series [5] deals with T1, Avidin. The series can be described thus: Blocking of subsequent 3H-biotin binding in streptavidin-treated microtiter wells. As for the experimental part:
All procedures using NVOC-biotin-OMe were conducted in dim red light. NVOC-biotin-OMe was dissolved in dimethylformamide (DMF) to a concentration 1 mM and diluted to 100 μM with phosphate-buffered saline pH 7.4. In order to remove any contaminants having high affinity for avidin, 2 ml of the NVOC-biotin-OMe solution was mixed with 1 ml of packed streptavidin-Sepharose-4B resin (SIGMA) which had been washed thoroughly to remove any non-covalently bound avidin. After stirring for three hours, the resin was removed by centrifugation followed by filtration (0.2 micron nylon filter).
Microtiter wells (Beckman EIA plates) were treated for 1 hr with 200 μl of 0.5 μg/ml of streptavidin in 10 mM sodium bicarbonate buffer (pH 9.6). […] The wells were then washed with PBS/Tween 20 and incubated for 1 hr at room temperature with 200 μl of PBS containing ^3 H-biotin (30 Ci/mmol, New England Nuclear). The wells were then washed with PBS/Tween and treated for 30 minutes at room temperature with 200 μl of 10% trichloroacetic acid in water. The radioactivity in 100 μl was then determined by liquid scintillation counting.

Series [6] has as its system avidin or streptavidin. Conditions: cited from earlier work.

“Also recorded” adds a separate entry of the source.

T1 sequence (P22629 25-183): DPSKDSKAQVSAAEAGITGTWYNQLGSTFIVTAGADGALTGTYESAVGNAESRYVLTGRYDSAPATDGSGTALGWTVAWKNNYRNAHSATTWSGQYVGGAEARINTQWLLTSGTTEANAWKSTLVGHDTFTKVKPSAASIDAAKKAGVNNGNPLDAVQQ
T2 sequence (P22629 25-183): as above

Take `COC(=O)CCCCC1SCC2C1NC(=O)N2C(=O)OC` (stereo not drawn) [1'-N-methoxy-carbonylbiotin methyl ester]: the “Affinity (Ka)” value in series [1] was 10^7 M^-1.
Turning to `COC(=O)CCCCC1SCC2NC(=O)N(C(=O)OC)C21` (stereo not drawn) [3'-N-methoxy-carbonylbiotin methyl ester], in series [1], the “Affinity (Ka)” value is 10^9 M^-1.
`O=C(O)CCCC[C@@H]1SC[C@@H]2NC(=O)N[C@@H]21` [Biotin, reference compound]: the “result of illumination (HPLC)” value in series [2] is recorded as “unaffected by the illumination”.
As to `O=C(CCCCCNC(=O)CCCC[C@@H]1SC[C@@H]2NC(=O)N[C@@H]21)NCCCCCNC(=S)Nc1ccc2c(c1)C(=O)OC21c2ccc(O)cc2Oc2cc(O)ccc21` [Fluorescein-Biotin, 5-(N-((5-(N-(6-(biotinoyl)amino)hexanoyl)amino)pentyl)thioureidyl)fluorescein], the “binding of Fluorescein-Biotin to immobilized streptavidin (fluorescence image)” value in series [3] is reported as “high fluorescence intensity”.
With `N=C1NC2CSC(CCCCC(=O)O)C2N1` (stereo not drawn) [Iminobiotin], in series [1], the “Affinity (Ka)” value is recorded as 10^11 M^-1.
Turning to `O=C(CCCC[C@@H]1SC[C@H]2[C@@H]1NC(=O)N2C(=O)OCc1cc2c(cc1[N+](=O)[O-])OCO2)Oc1ccc([N+](=O)[O-])cc1` [NPOC-biotin-ONP, N-1'-(6-nitropiperonyloxycarbonyl)-biotin para-nitrophenyl ester], in series [4], the “streptavidin binding upon photodeprotection (fluorescence image)” value was “spatially-localized streptavidin binding”.
Turning to `COC(=O)CCCC[C@@H]1SC[C@H]2[C@@H]1NC(=O)N2C(=O)OCc1cc(OC)c(OC)cc1[N+](=O)[O-]` [NVOC-biotin-OMe, N-1'-(6-nitroveratryloxycarbonyl)-biotin methyl ester], the figures for the affinity for avidin result in series [5] (after illumination in solution) and in series [5] (prior to illumination) were “high affinity” and “low affinity; also recorded: very low affinity”, respectively. Moreover, in series [5] (illuminated (IL caged biotin), compared with biotin), the “effectiveness in blocking the subsequent binding of 3H-biotin” value is “nearly as effective as biotin”. Further, in series [5] (non-illuminated, concentrations as high as 10^-5 M), the “effect on the subsequent binding of 3H-biotin” value is “no significant effect”.
Turning to `COc1cc(COC(=O)N2C(=O)N[C@@H]3[C@H](CCCCC(=O)Oc4ccc([N+](=O)[O-])cc4)SC[C@@H]32)c([N+](=O)[O-])cc1OC` [NVOC-biotin-ONP, N-1'-(6-nitroveratryloxycarbonyl)-biotin para-nitrophenyl ester], in series [2], the “result of illumination (HPLC)” value was “converted to biotin-ONP upon illumination; also recorded: converted to Biotin-ONP by the illumination”.
Turning to `CN(CCCNC(=O)CCCC[C@@H]1SC[C@@H]2NC(=O)N[C@@H]21)CCCNc1ccc(N=[N+]=[N-])cc1[N+](=O)[O-]` [photobiotin], the “effect of carboxylate-terminus derivatization on binding to avidin or streptavidin” value in series [6] was “does not significantly reduce binding to avidin or streptavidin”.
